ChEMBL document CHEMBL5244278, “Bioisosteres of the Phenyl Ring: Recent Strategic Applications in Lead Optimization and Drug Design” (J Med Chem, 2021)
In brackets after ≈: the same amount, converted by molar mass.

Experiments:
[1] = in vitro; details: human, Caco-2
[2] = in vitro; details: human, liver microsomes
[3] = Inhibition of human rhinovirus 3C protease; set-up: species or system Human rhinovirus sp.
[4] = Aqueous solubility of compound; format: physicochemical
[5] = system: Human rhinovirus sp.; assay: Inhibition of human rhinovirus 3C protease assessed as kobs/[I]
[6] = Half life in human plasma; format: ADME, cell-free
[7] = system: Trypanosoma cruzi; assay: Antitrypanosomal activity against Trypanosoma cruzi trypomastigotes infected in mouse 3T3 cells assessed as reduction in parasite growth; format: functional, organism-based; details: NIH3T3
[8] = physchem; details: octanol/PBS, pH 7.6
[9] = system: Influenza A virus; assay: Antiviral activity against Influenza A virus A/PR/8/34 (PR8) strain infected in MDCK cells assessed as reduction in viral infection incubated for 72 hrs by crystal violet staining based assay; format: functional, organism-based
[10] = biological target: T1, Beta-2 adrenergic receptor (Bos taurus, UniProt Q28044); assay: Binding affinity to bovine lung membrane adrenergic beta-2 receptor; format: cell membranes
T1 sequence (Q28044 whole entry): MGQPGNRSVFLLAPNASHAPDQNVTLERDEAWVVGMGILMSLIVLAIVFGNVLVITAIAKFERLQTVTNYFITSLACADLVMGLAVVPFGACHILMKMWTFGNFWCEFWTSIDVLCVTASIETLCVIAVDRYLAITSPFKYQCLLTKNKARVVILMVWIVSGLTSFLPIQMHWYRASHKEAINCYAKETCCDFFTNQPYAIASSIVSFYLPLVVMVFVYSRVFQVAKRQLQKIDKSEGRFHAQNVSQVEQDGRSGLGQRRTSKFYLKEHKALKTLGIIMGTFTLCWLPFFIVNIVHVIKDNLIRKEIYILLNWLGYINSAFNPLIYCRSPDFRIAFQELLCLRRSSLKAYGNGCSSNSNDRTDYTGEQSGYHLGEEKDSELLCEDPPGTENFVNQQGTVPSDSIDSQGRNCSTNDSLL

[11] = biological target: T1, Beta-2 adrenergic receptor; assay: Antagonist activity at bovine lung membrane adrenergic beta-2 receptor; format: cell membranes
[12] = biological target: T2, Beta-1 adrenergic receptor (Rattus norvegicus, UniProt P18090)
T2 sequence (P18090 whole entry): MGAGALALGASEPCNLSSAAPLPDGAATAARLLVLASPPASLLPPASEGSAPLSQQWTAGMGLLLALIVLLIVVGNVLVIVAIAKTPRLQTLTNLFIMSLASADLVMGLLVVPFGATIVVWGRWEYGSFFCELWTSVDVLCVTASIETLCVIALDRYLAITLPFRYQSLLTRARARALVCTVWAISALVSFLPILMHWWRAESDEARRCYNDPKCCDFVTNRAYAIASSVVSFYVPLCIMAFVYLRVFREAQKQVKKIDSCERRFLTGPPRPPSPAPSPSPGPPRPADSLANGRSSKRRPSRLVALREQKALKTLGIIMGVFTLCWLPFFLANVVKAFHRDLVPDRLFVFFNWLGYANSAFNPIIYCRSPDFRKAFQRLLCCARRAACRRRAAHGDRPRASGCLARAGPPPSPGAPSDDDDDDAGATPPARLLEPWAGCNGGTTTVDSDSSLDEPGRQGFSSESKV

[13] = biological target: T2, Beta-1 adrenergic receptor; remark: listed apart in the source
[14] = physchem; details: buffer, pH 7.4
[15] = in vitro; details: human, Caco-2; remark: listed apart in the source
[16] = Inhibition of WNT (unknown origin) by luciferase reporter assay; set-up: species or system Homo sapiens
[17] = Solubility of compound at pH 6.8 by RapidFire mass spectrometry; format: physicochemical; details: buffer
[18] = biological target: CYP3A4 (Homo sapiens, UniProt P08684); assay: (§1) Inhibition of CYP3A4 (unknown origin); format: ADME
Chain of CYP3A4 (P08684 whole entry): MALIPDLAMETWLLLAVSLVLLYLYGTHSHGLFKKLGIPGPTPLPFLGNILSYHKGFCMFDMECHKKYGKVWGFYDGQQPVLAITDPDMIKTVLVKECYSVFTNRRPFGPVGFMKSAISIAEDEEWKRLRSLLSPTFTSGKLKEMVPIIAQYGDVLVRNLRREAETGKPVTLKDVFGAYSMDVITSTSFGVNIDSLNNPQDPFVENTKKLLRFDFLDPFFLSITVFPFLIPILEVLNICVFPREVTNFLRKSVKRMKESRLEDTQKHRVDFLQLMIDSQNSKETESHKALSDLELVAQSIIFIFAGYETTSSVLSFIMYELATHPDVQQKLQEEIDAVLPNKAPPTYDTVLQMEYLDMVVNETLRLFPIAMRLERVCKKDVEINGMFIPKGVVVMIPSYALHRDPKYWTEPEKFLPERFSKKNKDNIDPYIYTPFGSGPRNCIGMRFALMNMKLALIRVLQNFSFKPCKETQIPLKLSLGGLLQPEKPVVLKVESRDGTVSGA

[19] = Lipophilicity, logD of the compound in 1-octanol and phosphate buffer by tandem mass spectrometer analysis; format: physicochemical; details: 1-octanol/phosphate buffer
[20] = biological target: hERG (KCNH2) (Homo sapiens, UniProt Q12809); assay: (§2) Inhibition of hERG channel; format: toxicity; details: human
Chain of hERG (KCNH2) (Q12809 whole entry): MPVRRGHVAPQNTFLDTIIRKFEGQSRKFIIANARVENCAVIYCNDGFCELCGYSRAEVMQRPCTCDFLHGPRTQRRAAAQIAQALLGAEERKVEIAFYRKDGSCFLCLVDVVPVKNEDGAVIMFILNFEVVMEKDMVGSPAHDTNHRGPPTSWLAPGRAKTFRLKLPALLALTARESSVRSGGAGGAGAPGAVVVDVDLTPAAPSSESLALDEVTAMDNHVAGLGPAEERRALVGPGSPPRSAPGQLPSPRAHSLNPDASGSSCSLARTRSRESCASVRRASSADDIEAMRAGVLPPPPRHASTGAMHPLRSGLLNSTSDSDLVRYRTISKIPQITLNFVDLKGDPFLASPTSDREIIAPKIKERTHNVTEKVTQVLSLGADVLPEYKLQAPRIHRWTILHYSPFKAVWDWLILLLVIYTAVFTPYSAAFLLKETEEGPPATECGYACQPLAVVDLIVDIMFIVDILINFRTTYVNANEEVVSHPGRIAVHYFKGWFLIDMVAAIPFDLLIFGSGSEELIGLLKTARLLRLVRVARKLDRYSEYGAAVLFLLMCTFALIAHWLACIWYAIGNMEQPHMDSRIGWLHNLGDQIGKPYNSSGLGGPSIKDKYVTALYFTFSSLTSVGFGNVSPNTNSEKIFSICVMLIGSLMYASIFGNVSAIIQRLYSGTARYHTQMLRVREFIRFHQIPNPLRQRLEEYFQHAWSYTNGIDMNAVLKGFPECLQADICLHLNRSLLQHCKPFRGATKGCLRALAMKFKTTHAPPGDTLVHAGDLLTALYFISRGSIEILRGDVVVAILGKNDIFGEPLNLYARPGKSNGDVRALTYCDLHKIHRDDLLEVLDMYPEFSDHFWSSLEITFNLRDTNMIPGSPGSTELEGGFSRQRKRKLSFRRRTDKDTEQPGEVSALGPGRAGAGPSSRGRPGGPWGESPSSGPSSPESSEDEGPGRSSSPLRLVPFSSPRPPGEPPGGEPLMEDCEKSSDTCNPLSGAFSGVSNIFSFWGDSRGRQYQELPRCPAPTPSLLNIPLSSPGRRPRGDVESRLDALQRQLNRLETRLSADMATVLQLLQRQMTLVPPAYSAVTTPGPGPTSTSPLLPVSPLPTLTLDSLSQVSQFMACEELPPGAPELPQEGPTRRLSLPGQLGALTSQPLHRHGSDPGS

[21] = Solubility of the compound in FaSSIF at pH 6.8 by RapidFire mass spectrometry; format: ADME; details: simulated gi fluid
[22] = Clearance in rat liver microsomes; format: ADME, Microsome
[23] = system: Hepatitis C virus; assay: Antiviral activity against HCV GT2a-genotype assessed as inhibition of viral replication; format: functional, organism-based, Hepacivirus hominis
[24] = system: Hepatitis C virus; assay: Antiviral activity against HCV GT4a-genotype assessed as inhibition of viral replication; format: functional, organism-based, Hepacivirus hominis
[25] = system: Hepatitis C virus; assay: Antiviral activity against HCV GT3a-genotype assessed as inhibition of viral replication; format: functional, organism-based, Hepacivirus hominis
[26] = system: Hepatitis C virus; assay: microbe, parasite or virus in culture; details: GT1a-genotype
[27] = system: Hepatitis C virus; assay: microbe, parasite or virus in culture; details: GT1b-genotype
[28] = biological target: Cytochrome P450 3A4 (Homo sapiens, UniProt P08684); assay: as §1; format: ADME
Chain of Cytochrome P450 3A4 (P08684 whole entry): as the sequence (P08684 whole entry) above

[29] = Half life in rat hepatocytes; format: ADME, cell-based, Hepatocyte
[30] = system: SU-DHL10; assay: Antiproliferative activity against human SU-DHL-10 cells assessed as cell growth inhibition at 30 uM relative to control; format: functional
[31] = Aqueous solubility of compound at pH 7.4; format: physicochemical
[32] = system: MDA-MB-231; assay: Antiproliferative activity against human MDA-MB-231 cells assessed as cell growth inhibition at 30 uM relative to control; format: functional
[33] = Lipophilicity, logD of the compound at pH 7.4; format: physicochemical; details: buffer
[34] = system: MIA PaCa-2; assay: Antiproliferative activity against human MIA PaCa-2 cells assessed as cell growth inhibition at 30 uM relative to control; format: functional
[35] = in vitro; details: mouse, liver microsomes
[36] = in vitro; details: rat, liver microsomes
[37] = in vitro; details: human, liver microsomes; remark: listed apart in the source
[38] = biological target: Vasopressin V1a receptor (Homo sapiens, UniProt P37288)
Chain of Vasopressin V1a receptor (P37288 whole entry): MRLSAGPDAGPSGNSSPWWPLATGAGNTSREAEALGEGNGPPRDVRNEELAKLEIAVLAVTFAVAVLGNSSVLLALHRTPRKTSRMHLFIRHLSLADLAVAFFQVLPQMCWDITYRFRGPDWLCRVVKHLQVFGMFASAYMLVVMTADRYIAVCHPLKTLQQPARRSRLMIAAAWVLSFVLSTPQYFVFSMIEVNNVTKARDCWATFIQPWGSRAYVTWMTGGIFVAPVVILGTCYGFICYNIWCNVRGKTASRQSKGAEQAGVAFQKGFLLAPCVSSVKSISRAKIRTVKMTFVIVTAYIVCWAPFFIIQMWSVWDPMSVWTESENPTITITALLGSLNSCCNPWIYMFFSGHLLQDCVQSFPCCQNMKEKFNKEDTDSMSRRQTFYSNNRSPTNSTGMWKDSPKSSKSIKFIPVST

[39] = Prodrug conversion in rat plasma assessed as formation of Isavuconazole from intermediate by measuring half life; format: ADME, cell-free
[40] = Prodrug conversion in rat plasma assessed as esterase mediated intermediate formation by measuring half life; format: ADME, cell-free
[41] = Solubility of the compound; format: physicochemical
[42] = human, microsomes
[43] = system: Hepatitis C virus; assay: Antiviral activity against HCV GT5a-genotype assessed as inhibition of viral replication; format: functional, organism-based, Hepacivirus hominis
[44] = biological target: Voltage-gated inwardly rectifying potassium channel KCNH2 (Homo sapiens, UniProt Q12809); assay: as §2; format: toxicity
Chain of Voltage-gated inwardly rectifying potassium channel KCNH2 (Q12809 whole entry): as the sequence (Q12809 whole entry) above

[45] = physchem; details: buffer, pH 7.4; remark: listed apart in the source
[46] = Inhibition of MAPK (unknown origin); set-up: species or system Homo sapiens
[47] = biological target: Polymerase acidic protein (Influenza A virus (A/Puerto Rico/8/1934(H1N1)), UniProt P03433)

SMILES: C#CC[C@@H](C(=O)N[C@H](/C=C/C(=O)OCC)C[C@@H]1CCNC1=O)n1cccc(NC(=O)c2cc(C)on2)c1=O [IMOCITRELVIR]
- Papp A→B [1]: 6 ×10⁻⁶ cm/s
- remaining at 0.5 h [2]: 60%
- EC50 [3]: 58 nM
- solubility [4]: 377 µg/mL (≈ 720 µM)
- Ratio [5]: 223000 M/s
- half-life [6]: 396 min

SMILES: O=C(Cn1ccnc1[N+](=O)[O-])NCC1=C/C=C\C=C/C=C\1
- EC50 [7]: 2.3 µM

SMILES: O=C(CCCCCCC(=O)Nc1ccccc1)NO [VORINOSTAT]
- logD [8]: 0.99

SMILES: O=C(O)/C(O)=C/C(=O)C1CCCCC1
- IC50 [9]: 29.4 µM

SMILES: CCO/N=C/C(O)CNC(C)(C)C (centres undefined)
- Ki [10]: 850 nM
- IC50 [11]: 269 nM
- IC50 [12]: 8.32 µM
- Ki [13]: 850 nM

SMILES: Clc1ccc2c(c1)CCCc1nnc(C3CCN(c4ccccn4)CC3)n1-2
- solubility kinetic [14]: 8.9 µM (≈ 3380 ng/mL)
- efflux ratio [15]: 1

SMILES: CC(C)NCC(O)c1ccc(Cl)c(Cl)c1 (centres undefined) [DICHLOROISOPROTERENOL]
- IC50 [11]: 977 nM
- IC50 [12]: 0.115 µM

SMILES: Cc1cc(-c2ccc(CNC(=O)C34CC(c5cnccn5)(C3)C4)cc2)ccn1
- EC50 [16]: > 50 nM

SMILES: O=C(Cc1ccc(-c2ccccc2)cc1)Nc1cc(C2CC2)[nH]n1
- solubility [17]: < 4 nM
- IC50 [18]: > 20 µM
- logD [19]: 4.4
- IC50 [20]: > 30 µM
- solubility [21]: 6 nM (≈ 1.9 ng/mL)
- CLhep predicted [22]: 48 mL/min/kg

SMILES: COC(=O)N[C@@H](C(=O)N1CCC[C@@H]1c1ncc(-c2csc3c(-c4cnc([C@H]5CCCN5C(=O)[C@H](NC(=O)OC)C(C)C)[nH]4)csc23)[nH]1)C(C)C
- EC50 [23]: < 100 pM
- EC50 [24]: < 100 pM
- EC50 [25]: 0.1 nM
- EC50 [26]: < 0.1 nM

SMILES: CCOC(=O)/C=C/[C@H](C[C@@H]1CCNC1=O)NC(=O)[C@H](Cc1ccc(F)c(F)c1)n1cccc(NC(=O)c2cc(C)on2)c1=O
- Papp A→B [1]: 35 ×10⁻⁶ cm/s
- remaining at 0.5 h [2]: 19%
- EC50 [3]: 11 nM
- solubility [4]: 25 µg/mL (≈ 40.9 µM)
- Ratio [5]: 1.8e+06 M/s

SMILES: COC(=O)N[C@@H](C(=O)N1CCC[C@@H]1c1ncc(-c2cc3sc(-c4cnc([C@H]5CCCN5C(=O)[C@H](NC(=O)OC)C(C)C)[nH]4)cc3s2)[nH]1)C(C)C
- EC50 [27]: < 1000 pM
- EC50 [26]: 10 nM

SMILES: O=C(Cc1ccc(B2C=CC=CN2)cc1)Nc1cc(C2CC2)[nH]n1
- solubility [17]: 13 nM (≈ 4.14 ng/mL)
- IC50 [28]: > 20 µM
- logD [19]: 3.9
- IC50 [20]: > 30 µM
- solubility [21]: 30 nM (≈ 9.55 ng/mL)
- CLhep predicted [22]: 48 mL/min/kg

SMILES: Oc1cc(O)cc(/C=C/C23CC(O)(C2)C3)c1
- half-life [29]: 24 min
- inhibition at 30 µM [30]: 41%
- solubility [31]: 619 µg/mL (≈ 2840 µM)
- inhibition at 30 µM [32]: 22%
- logD [33]: 1.9
- inhibition at 30 µM [34]: 30%

SMILES: Clc1cnc2n1CCCc1nnc(C3CCN(c4ccccn4)CC3)n1-2
- microsomal CLint [35]: 33 µL/min/mg
- microsomal CLint [36]: 32 µL/min/mg
- microsomal CLint [37]: 4 µL/min/mg
- solubility kinetic [14]: 93.8 µM (≈ 34700 ng/mL)
- Ki [38]: 140 nM

SMILES: Oc1ccc(/C=C/c2cc(O)cc(O)c2)cc1 [RESVERATROL]
- half-life [29]: < 7.5 min
- inhibition at 30 µM [30]: 46%
- solubility [31]: 19 µg/mL (≈ 83.2 µM)
- inhibition at 30 µM [32]: 20%
- logD [33]: 2.9
- inhibition at 30 µM [34]: 30%

SMILES: CNCC(=O)OCc1cccnc1N(C)C(=O)OC(C)[n+]1cnn(C[C@](O)(c2cc(F)ccc2F)[C@H](C)c2nc(-c3ccc(C#N)cc3)cs2)c1 (some centres undefined)
- t1/2 [39]: < 1 min
- t1/2 [40]: < 1 min
- solubility [41]: > 100000 µg/mL

SMILES: Clc1cnc2n1CCCc1nnc([C@H]3CC[C@H](Oc4ccccn4)CC3)n1-2
- Papp A→B [1]: 41 ×10⁻⁶ cm/s
- solubility kinetic [14]: 49.6 µM (≈ 19100 ng/mL)
- CLH [42]: 1 µL/min/mg
- Ki [38]: 14 nM

SMILES: CC/C=N/OCC(O)CNC(C)(C)C (centres undefined)
- IC50 [11]: 1550 nM
- IC50 [12]: 26.3 µM

SMILES: COC(=O)N[C@H](C(=O)N1CCC[C@H]1c1nc2cc(-c3csc4c(-c5ccc(-c6c[nH]c([C@@H]7CCCN7C(=O)[C@H](NC(=O)OC)c7ccccc7)n6)cc5)csc34)ccc2[nH]1)C(C)C
- EC50 [23]: 2 pM
- EC50 [27]: 2 pM
- EC50 [24]: 2 pM
- EC50 [25]: 0.1 nM
- EC50 [26]: 0.002 nM
- EC50 [43]: 2 pM

SMILES: Cc1cc(-c2ccc(CNC(=O)c3ccc(-c4cnccn4)cc3)cc2)ccn1
- EC50 [16]: 0.7 nM

SMILES: O=C(NCCS(=O)(=O)c1ccc(C(F)(F)F)cn1)c1ccc(B2C=CC=CN2)cc1
- solubility [17]: < 4 nM
- IC50 [28]: > 20 µM
- logD [19]: 3.5
- IC50 [44]: > 30 µM
- solubility [21]: 6 nM (≈ 2.61 ng/mL)
- CLhep predicted [22]: 53 mL/min/kg

SMILES: COCCn1c(SC)nc(-c2ccc(F)cc2)c1-c1cccc(NC(=O)CCc2cccc(OC)c2)c1
- solubility [45]: 0.275 µg/mL (≈ 0.529 µM)
- IC50 [46]: 93 nM

SMILES: CCN1CCC(Cc2ccc(Cl)cc2)(C(=O)/C=C(\O)C(=O)O)CC1
- IC50 [9]: 1.1 µM
- Ki [47]: 90 nM

SMILES: COc1ccccc1N1CCN(CCCCNC(=O)c2ccc(-c3ccccc3)cc2)CC1
- solubility [17]: < 5 nM
- IC50 [18]: > 20 µM
- solubility [21]: 21 nM (≈ 9.32 ng/mL)
- CLhep predicted [22]: 51 mL/min/kg

SMILES: O=C(NCCS(=O)(=O)c1ccc(C(F)(F)F)cn1)c1ccc(-c2ccccc2)cc1
- solubility [17]: < 4 nM
- IC50 [18]: > 20 µM
- IC50 [44]: > 30 µM
- solubility [21]: < 4 nM
- CLhep predicted [22]: 39 mL/min/kg

SMILES: O=C(Cn1ccnc1[N+](=O)[O-])NCc1ccccc1 [BENZNIDAZOLE]
- EC50 [7]: 6.1 µM

SMILES: CNCC(=O)OCc1ccccc1N(C)C(=O)OC(C)[n+]1cnn(C[C@](O)(c2cc(F)ccc2F)[C@H](C)c2nc(-c3ccc(C#N)cc3)cs2)c1 (some centres undefined)
- t1/2 [39]: 13 min
- t1/2 [40]: < 2 min
- solubility [41]: 1000 µg/mL

SMILES: COCCn1c(SC)nc(-c2ccc(F)cc2)c1-c1cccc(NC(=O)CCc2ccccc2OC)c1
- solubility [45]: 0.0255 µg/mL (≈ 0.0491 µM)
- IC50 [46]: 93 nM
